According to the supplement of paper PMC10307832:

Columns and labels:
Assay in all cases: relative viability (nuclei count vs DMSO), 5 days (fraction); higher = more cells survive
A-427 = tested on: A-427
How it was run: (§1)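 One day after seeding in 1536-well plates, lung cancer cell lines were dosed by pin tool. Dosing was either single-drug or a fixed anchor-drug dose plus five library-drug doses (not always all listed) in √10 steps. After 5 days, nuclei were stained in one fix-and-stain step and counted on 4× images, and relative viability is the nuclei count of treated wells over that of vehicle wells, given as the median of duplicate plates.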

CAL-12T = tested on: CAL-12T
How it was run: as §1

COR-L 105 = tested on: COR-L 105
How it was run: as §1

EPLC-272H = tested on: EPLC-272H
How it was run: as §1

HCC-15 = tested on: HCC-15
How it was run: as §1

HCC-44 = tested on: HCC-44
How it was run: as §1

LC-2-ad = tested on: LC-2-ad
How it was run: as §1

LCLC-97TM1 = tested on: LCLC-97TM1
How it was run: as §1

NCI-H1395 = tested on: NCI-H1395
How it was run: as §1

NCI-H1563 = tested on: NCI-H1563
How it was run: as §1

NCI-H1734 = tested on: NCI-H1734
How it was run: as §1

NCI-H1792 = tested on: NCI-H1792
How it was run: as §1

NCI-H1915 = tested on: NCI-H1915
How it was run: as §1

NCI-H1975 = tested on: NCI-H1975
How it was run: as §1

NCI-H2023 = tested on: NCI-H2023
How it was run: as §1

NCI-H2342 = tested on: NCI-H2342
How it was run: as §1

NCI-H2347 = tested on: NCI-H2347
How it was run: as §1

NCI-H2405 = tested on: NCI-H2405
How it was run: as §1

NCI-H520 = tested on: NCI-H520
How it was run: as §1

NCI-H838 = tested on: NCI-H838
How it was run: as §1

SW 1573 = tested on: SW 1573
How it was run: as §1

SW 900 = tested on: SW 900
How it was run: as §1

UMC-11 = tested on: UMC-11
How it was run: as §1

## Cc1csc(=NC2CCCCC2)n1/N=C/c1ccc(O)c(O)c1O [MIM1] + COc1cccc2cc(-c3nc([C@H]4CC[C@H](C(=O)O)CC4)n4ncnc(N)c34)[nH]c12 [OSI-027] (partner 0.5 µM)
A-427; first compound 0.2 µM
  relative viability: 0.432
A-427; first compound 2 µM
  relative viability: 0.48
A-427; first compound 6.325 µM
  relative viability: 0.456
A-427; first compound 20 µM
  relative viability: 0.191
CAL-12T; first compound 0.2 µM
  relative viability: 0.607
CAL-12T; first compound 0.6325 µM
  relative viability: 0.579
CAL-12T; first compound 2 µM
  relative viability: 0.57
CAL-12T; first compound 6.325 µM
  relative viability: 0.445
CAL-12T; first compound 20 µM
  relative viability: 0.143
COR-L 105; first compound 0.2 µM
  relative viability: 0.733
COR-L 105; first compound 0.6325 µM
  relative viability: 0.725
COR-L 105; first compound 2 µM
  relative viability: 0.596
COR-L 105; first compound 6.325 µM
  relative viability: 0.582
COR-L 105; first compound 20 µM
  relative viability: 0.552
EPLC-272H; first compound 0.2 µM
  relative viability: 0.254
EPLC-272H; first compound 0.6325 µM
  relative viability: 0.269
EPLC-272H; first compound 2 µM
  relative viability: 0.308
EPLC-272H; first compound 6.325 µM
  relative viability: 0.24
EPLC-272H; first compound 20 µM
  relative viability: 0.141
HCC-15; first compound 0.2 µM
  relative viability: 0.747
HCC-15; first compound 2 µM
  relative viability: 0.778
HCC-15; first compound 6.325 µM
  relative viability: 0.469
HCC-15; first compound 20 µM
  relative viability: 0.102
HCC-44; first compound 0.2 µM
  relative viability: 0.699
HCC-44; first compound 0.6325 µM
  relative viability: 0.5
HCC-44; first compound 2 µM
  relative viability: 0.271
HCC-44; first compound 6.325 µM
  relative viability: 0.448
HCC-44; first compound 20 µM
  relative viability: 0.184
LC-2-ad; first compound 0.2 µM
  relative viability: 0.909
LC-2-ad; first compound 0.6325 µM
  relative viability: 0.591
LC-2-ad; first compound 2 µM
  relative viability: 0.754
LC-2-ad; first compound 6.325 µM
  relative viability: 0.373
LC-2-ad; first compound 20 µM
  relative viability: 0.218
LCLC-97TM1; first compound 0.2 µM
  relative viability: 0.437
LCLC-97TM1; first compound 0.6325 µM
  relative viability: 0.455
LCLC-97TM1; first compound 2 µM
  relative viability: 0.508
LCLC-97TM1; first compound 6.325 µM
  relative viability: 0.503
LCLC-97TM1; first compound 20 µM
  relative viability: 0.193
NCI-H1395; first compound 0.2 µM
  relative viability: 0.592
NCI-H1395; first compound 0.6325 µM
  relative viability: 0.63
NCI-H1395; first compound 2 µM
  relative viability: 0.618
NCI-H1395; first compound 6.325 µM
  relative viability: 0.508
NCI-H1395; first compound 20 µM
  relative viability: 0.374
NCI-H1563; first compound 0.2 µM
  relative viability: 0.725
NCI-H1563; first compound 0.6325 µM
  relative viability: 0.821
NCI-H1563; first compound 2 µM
  relative viability: 0.688
NCI-H1563; first compound 6.325 µM
  relative viability: 0.72
NCI-H1563; first compound 20 µM
  relative viability: 0.525
NCI-H1734; first compound 0.2 µM
  relative viability: 0.666
NCI-H1734; first compound 0.6325 µM
  relative viability: 0.495
NCI-H1734; first compound 2 µM
  relative viability: 0.525
NCI-H1734; first compound 6.325 µM
  relative viability: 0.304
NCI-H1734; first compound 20 µM
  relative viability: 0.201
NCI-H1792; first compound 0.2 µM
  relative viability: 0.737
NCI-H1792; first compound 0.6325 µM
  relative viability: 0.807
NCI-H1792; first compound 2 µM
  relative viability: 0.791
NCI-H1792; first compound 6.325 µM
  relative viability: 0.578
NCI-H1792; first compound 20 µM
  relative viability: 0.596
NCI-H1915; first compound 0.2 µM
  relative viability: 0.669
NCI-H1915; first compound 0.6325 µM
  relative viability: 0.495
NCI-H1915; first compound 2 µM
  relative viability: 0.609
NCI-H1915; first compound 6.325 µM
  relative viability: 0.49
NCI-H1915; first compound 20 µM
  relative viability: 0.232
NCI-H1975; first compound 0.2 µM
  relative viability: 0.704
NCI-H1975; first compound 0.6325 µM
  relative viability: 0.734
NCI-H1975; first compound 2 µM
  relative viability: 0.584
NCI-H1975; first compound 6.325 µM
  relative viability: 0.36
NCI-H1975; first compound 20 µM
  relative viability: 0.336
NCI-H2023; first compound 0.2 µM
  relative viability: 0.422
NCI-H2023; first compound 0.6325 µM
  relative viability: 0.501
NCI-H2023; first compound 2 µM
  relative viability: 0.305
NCI-H2023; first compound 6.325 µM
  relative viability: 0.182
NCI-H2023; first compound 20 µM
  relative viability: 0.0588
NCI-H2342; first compound 0.2 µM
  relative viability: 0.675
NCI-H2342; first compound 0.6325 µM
  relative viability: 0.59
NCI-H2342; first compound 2 µM
  relative viability: 0.663
NCI-H2342; first compound 6.325 µM
  relative viability: 0.633
NCI-H2342; first compound 20 µM
  relative viability: 0.728
NCI-H2347; first compound 0.2 µM
  relative viability: 0.41
NCI-H2347; first compound 0.6325 µM
  relative viability: 0.449
NCI-H2347; first compound 2 µM
  relative viability: 0.437
NCI-H2347; first compound 6.325 µM
  relative viability: 0.392
NCI-H2347; first compound 20 µM
  relative viability: 0.287
NCI-H2405; first compound 0.2 µM
  relative viability: 0.638
NCI-H2405; first compound 0.6325 µM
  relative viability: 0.666
NCI-H2405; first compound 2 µM
  relative viability: 0.637
NCI-H2405; first compound 6.325 µM
  relative viability: 0.553
NCI-H2405; first compound 20 µM
  relative viability: 0.434
NCI-H520; first compound 0.2 µM
  relative viability: 0.245
NCI-H520; first compound 0.6325 µM
  relative viability: 0.22
NCI-H520; first compound 2 µM
  relative viability: 0.249
NCI-H520; first compound 6.325 µM
  relative viability: 0.24
NCI-H520; first compound 20 µM
  relative viability: 0.25
NCI-H838; first compound 0.2 µM
  relative viability: 0.469
NCI-H838; first compound 0.6325 µM
  relative viability: 0.428
NCI-H838; first compound 2 µM
  relative viability: 0.397
NCI-H838; first compound 6.325 µM
  relative viability: 0.373
NCI-H838; first compound 20 µM
  relative viability: 0.169
SW 1573; first compound 0.2 µM
  relative viability: 0.689
SW 1573; first compound 0.6325 µM
  relative viability: 0.724
SW 1573; first compound 2 µM
  relative viability: 0.544
SW 1573; first compound 6.325 µM
  relative viability: 0.46
SW 1573; first compound 20 µM
  relative viability: 0.0875
SW 900; first compound 0.2 µM
  relative viability: 0.54
SW 900; first compound 0.6325 µM
  relative viability: 0.789
SW 900; first compound 2 µM
  relative viability: 0.703
SW 900; first compound 6.325 µM
  relative viability: 0.441
SW 900; first compound 20 µM
  relative viability: 0.191
UMC-11; first compound 0.2 µM
  relative viability: 0.504
UMC-11; first compound 2 µM
  relative viability: 0.579
UMC-11; first compound 6.325 µM
  relative viability: 0.397
UMC-11; first compound 20 µM
  relative viability: 0.264
